Laboratory results published in patent US9487749B2 (priority 2009, dated 2016).

What was measured:
Escherichia coli = assay: USP Antimicrobial Effectiveness Test (AET) of MSM supplemented TSB; format: cell-based; parameters: key: Colonies too numerous to count (TNTC); details: 48 hrs
From the text: (§1) Compounds or formulated products having antimicrobial activity may be evaluated with the United States Pharmacopeia (USP) Antimicrobial Effectiveness Test (AET). The AET involves the addition of specified microorganisms (Candida albicans, Aspergillus niger, Escherichia coli, Pseudomonas aeruginosa and Staphylococcus aureus) directly to a test product at relatively high concentrations to simulate contamination. The product is held for one month, with weekly analysis of microorganism levels. […] For yeast and mold, no increase from the initial inoculums level is permitted. […] Inoculations were made using Candida albicans, Aspergillus niger, Escherichia coli, Pseudomonas aeruginosa and Staphylococcus aureus. Tryptic soy broth (TSB) was used as the culturing media. […] The inoculated media was held for one month, during which time the added microorganisms were enumerated weekly to determine if they were growing, dying off, or remaining near the initial inoculation level. […] The acceptance criteria for antimicrobial effectiveness are described in detail in the USP, herein incorporated by reference.

Pseudomonas aeruginosa = assay: as above; format: cell-based; parameters: key: Colonies too numerous to count (TNTC); details: 48 hrs
From the text: as §1

Bifidobacterium bifidum = assay: Growth of Bifidobacterium bifidum in MRS broth fortified with MSM (anaerobic); format: cell-based
Procedure: Each organism (Lactobacillus rhamnosus, Lactobacillus acidophilus, and Bifidobacterium bifidum) was grown in MRS bacterial growth medium (broth) and plated on MRS agar at different time intervals. Results are expressed in colony forming units per milliliter (cfu/mL). […] All bacterial organisms were incubated at 35° C. +/−2° C. for the duration of the study. […] All preparations and plating were conducted at room temperature. […] Test samples were plated in triplicate at each test date and the averages are reported. Bifidobacterium bifidum, a common microbe used in probiotics, was also tested. All Bifidobacterium samples were incubated under anaerobic conditions.

Chlorella minutissima = assay: Algal growth with MSM by percent transmittance; format: cell-based
Procedure: Two species of Chlorella were examined for growth—Chlorella sorokiniana a freshwater species and Chlorella minutissima a marine species. […] Growth was measured on day 0, 1, 2, 3, 4, 5, 6, 7, 8, 9 and 10. […] The following media were purchased from UTEX Culture Collection of Algae: Enriched Salt Water Medium and Volvox Dextrose Medium.
The algae were grown for 48 hours in the appropriate medium. The initial suspension was enumerated for each alga and is referred to as the starting inoculums. Chlorella sorokiniana was at 381 million cells per milliliter and Chlorella minutissima was at 19 million cells per milliliter. One milliliter of the algal solution was placed into 9 mLs of medium and mixed by vortexing. […] The tube of algae and MSM were incubated at room temperature with exposure to sunlight. […] Each dilution of MSM for each organism was set up in and analyzed in triplicate for each time interval measured. The samples were measured by percent transmittance on a UV/VIS spectrophotometer at wavelength 750 nm. The medium stock was tested for percent transmittance background levels at every time interval were measured. The lower percent transmittance indicated a higher growth factor.

E. coli = E. coli log growth in MSM supplemented Müller-Hinton media with or without NaCl; format: cell-based, Escherichia coli
Procedure: Standard Müller-Hinton media was compared to Müller-Hinton media supplemented with NaCl to the same level as the saline-based media of Example 4. […] Aliquots of each culture were taken at 24 and 48 hours, as well as 7 days.

Structure (SMILES): CS(C)(=O)=O [MSM, Methylsulfonylmethane]
- AET test results (microorganism count) (Escherichia coli; 1:100 dilution of MSM in TSB): TNTC
- AET test results (microorganism count) (Escherichia coli; 1:1000 dilution of MSM in TSB): TNTC
- AET test results (microorganism count) (Pseudomonas aeruginosa; 1:100 dilution of MSM in TSB): TNTC
- AET test results (microorganism count) (Pseudomonas aeruginosa; 1:1000 dilution of MSM in TSB): TNTC
- log increase of Bifidobacterium (Bifidobacterium bifidum; 0.04% MSM): One
- log higher than the 0% MSM control (Bifidobacterium bifidum; 0.04% and 0.2% MSM samples, 48 hours): 1 log
- log increase of Bifidobacterium (Bifidobacterium bifidum; 0.2% MSM): 2 log
- percent transmittance (Chlorella minutissima; MSM Percentage 0.5, day 0, 750 nm): 93.5%
- percent transmittance (Chlorella minutissima; MSM Percentage 0.5, day 1, 750 nm): 70.1%
- percent transmittance (Chlorella minutissima; MSM Percentage 0.5, day 2, 750 nm): 45.4%
- percent transmittance (Chlorella minutissima; MSM Percentage 0.5, day 3, 750 nm): 32.1%
- percent transmittance (Chlorella minutissima; MSM Percentage 0.5, day 4, 750 nm): 27.6%
- percent transmittance (Chlorella minutissima; MSM Percentage 0.5, day 5, 750 nm): 26.6%
- percent transmittance (Chlorella minutissima; MSM Percentage 0.5, day 6, 750 nm): 25.1%
- percent transmittance (Chlorella minutissima; MSM Percentage 0.5, day 7, 750 nm): 23.6%
- percent transmittance (Chlorella minutissima; MSM Percentage 0.5, day 8, 750 nm): 22.8%
- percent transmittance (Chlorella minutissima; MSM Percentage 0.5, day 9, 750 nm): 20.4%
- percent transmittance (Chlorella minutissima; MSM Percentage 0.5, day 10, 750 nm): 18.9%
- percent transmittance (Chlorella minutissima; MSM Percentage 1.0, day 0, 750 nm): 91.1%
- percent transmittance (Chlorella minutissima; MSM Percentage 1.0, day 1, 750 nm): 80.5%
- percent transmittance (Chlorella minutissima; MSM Percentage 1.0, day 2, 750 nm): 40.0%
- percent transmittance (Chlorella minutissima; MSM Percentage 1.0, day 3, 750 nm): 31.0%
- percent transmittance (Chlorella minutissima; MSM Percentage 1.0, day 4, 750 nm): 27.9%
- percent transmittance (Chlorella minutissima; MSM Percentage 1.0, day 5, 750 nm): 26.5%
- percent transmittance (Chlorella minutissima; MSM Percentage 1.0, day 6, 750 nm): 25.4%
- percent transmittance (Chlorella minutissima; MSM Percentage 1.0, day 7, 750 nm): 24.4%
- percent transmittance (Chlorella minutissima; MSM Percentage 1.0, day 8, 750 nm): 23.7%
- percent transmittance (Chlorella minutissima; MSM Percentage 1.0, day 9, 750 nm): 21.0%
- percent transmittance (Chlorella minutissima; MSM Percentage 1.0, day 10, 750 nm): 19.4%
- percent transmittance (Chlorella minutissima; MSM Percentage 2.5, day 0, 750 nm): 82.8%
- percent transmittance (Chlorella minutissima; MSM Percentage 2.5, day 1, 750 nm): 75.1%
- percent transmittance (Chlorella minutissima; MSM Percentage 2.5, day 2, 750 nm): 59.5%
- percent transmittance (Chlorella minutissima; MSM Percentage 2.5, day 3, 750 nm): 45.4%
- percent transmittance (Chlorella minutissima; MSM Percentage 2.5, day 4, 750 nm): 33.6%
- percent transmittance (Chlorella minutissima; MSM Percentage 2.5, day 5, 750 nm): 32.4%
- percent transmittance (Chlorella minutissima; MSM Percentage 2.5, day 6, 750 nm): 30.0%
- percent transmittance (Chlorella minutissima; MSM Percentage 2.5, day 7, 750 nm): 28.6%
- percent transmittance (Chlorella minutissima; MSM Percentage 2.5, day 8, 750 nm): 27.7%
- percent transmittance (Chlorella minutissima; MSM Percentage 2.5, day 9, 750 nm): 23.3%
- percent transmittance (Chlorella minutissima; MSM Percentage 2.5, day 10, 750 nm): 21.1%
- percent transmittance (Chlorella minutissima; MSM Percentage 5.0, day 0, 750 nm): 68.9%
- percent transmittance (Chlorella minutissima; MSM Percentage 5.0, day 1, 750 nm): 87.4%
- percent transmittance (Chlorella minutissima; MSM Percentage 5.0, day 2, 750 nm): 76.5%
- percent transmittance (Chlorella minutissima; MSM Percentage 5.0, day 3, 750 nm): 62.0%
- percent transmittance (Chlorella minutissima; MSM Percentage 5.0, day 4, 750 nm): 52.9%
- percent transmittance (Chlorella minutissima; MSM Percentage 5.0, day 5, 750 nm): 52.2%
- percent transmittance (Chlorella minutissima; MSM Percentage 5.0, day 6, 750 nm): 50.7%
- percent transmittance (Chlorella minutissima; MSM Percentage 5.0, day 7, 750 nm): 51.0%
- percent transmittance (Chlorella minutissima; MSM Percentage 5.0, day 8, 750 nm): 51.9%
- percent transmittance (Chlorella minutissima; MSM Percentage 5.0, day 9, 750 nm): 47.1%
- percent transmittance (Chlorella minutissima; MSM Percentage 5.0, day 10, 750 nm): 44.1%
- percent transmittance (Chlorella minutissima; MSM Percentage 10.0, day 0, 750 nm): 49.6%
- percent transmittance (Chlorella minutissima; MSM Percentage 10.0, day 1, 750 nm): 49.2%
- percent transmittance (Chlorella minutissima; MSM Percentage 10.0, day 2, 750 nm): 50.8%
- percent transmittance (Chlorella minutissima; MSM Percentage 10.0, day 3, 750 nm): 51.9%
- percent transmittance (Chlorella minutissima; MSM Percentage 10.0, day 4, 750 nm): 52.0%
- percent transmittance (Chlorella minutissima; MSM Percentage 10.0, day 5, 750 nm): 51.9%
- percent transmittance (Chlorella minutissima; MSM Percentage 10.0, day 6, 750 nm): 54.9%
- percent transmittance (Chlorella minutissima; MSM Percentage 10.0, day 7, 750 nm): 56.1%
- percent transmittance (Chlorella minutissima; MSM Percentage 10.0, day 8, 750 nm): 58.6%
- percent transmittance (Chlorella minutissima; MSM Percentage 10.0, day 9, 750 nm): 41.4%
- percent transmittance (Chlorella minutissima; MSM Percentage 10.0, day 10, 750 nm): 36.7%
- percent transmittance (Chlorella minutissima; MSM Percentage 20.0, day 0, 750 nm): 30.0%
- percent transmittance (Chlorella minutissima; MSM Percentage 20.0, day 1, 750 nm): 33.8%
- percent transmittance (Chlorella minutissima; MSM Percentage 20.0, day 2, 750 nm): 51.1%
- percent transmittance (Chlorella minutissima; MSM Percentage 20.0, day 3, 750 nm): 54.8%
- percent transmittance (Chlorella minutissima; MSM Percentage 20.0, day 4, 750 nm): 57.3%
- percent transmittance (Chlorella minutissima; MSM Percentage 20.0, day 5, 750 nm): 57.5%
- percent transmittance (Chlorella minutissima; MSM Percentage 20.0, day 6, 750 nm): 57.4%
- percent transmittance (Chlorella minutissima; MSM Percentage 20.0, day 7, 750 nm): 57.1%
- percent transmittance (Chlorella minutissima; MSM Percentage 20.0, day 8, 750 nm): 55.8%
- percent transmittance (Chlorella minutissima; MSM Percentage 20.0, day 9, 750 nm): 45.1%
- percent transmittance (Chlorella minutissima; MSM Percentage 20.0, day 10, 750 nm): 30.2%
- log reduction in E. coli (E. coli; FMHS media, 12% MSM, 7 days): 3 log
- reduction of E. coli growth (E. coli; MSM concentrations greater than 13%, 48 hours): 1-2 logs
- Log growth of E. coli (E. coli; after 24 hours, FMH (flaked MSM, Müller-Hinton), rows 16-5% MSM): 6.2 log
- log reduction from the initial inoculum (E. coli; all media, MSM concentrations greater than 13%, 24 hours): approximately 1 log
